Test results taken from patent US10196393B2, “JAK inhibitors containing a 4-membered heterocyclic amide” (THERAVANCE BIOPHARMA R&D IP, LLC, priority 2017, dated 2019).

Assays:
[1] = test system: IL-13 induced STAT6 phosphorylation in BEAS-2B human lung epithelial cells; assay: Cellular JAKI potency assay (AlphaScreen), BEAS-2B; format: cell-based; conditions: BEAS-2B cells
Experimental: Assay 2: Cellular JAKI Potency Assay
The AlphaScreen JAKI cellular potency assay was carried out by measuring interleukin-13 (IL-13, R&D Systems) induced STAT6 phosphorylation in BEAS-2B human lung epithelial cells (ATCC). The anti-STAT6 antibody (Cell Signaling Technologies) was conjugated to AlphaScreen acceptor beads (Perkin Elmer), while the anti-pSTAT6 (pTyr641) antibody (Cell Signaling Technologies) was biotinylated using EZ-Link Sulfo-NHS-Biotin (Thermo Scientific).
BEAS-2B cells were grown at 37° C. in a 5% CO2 humidified incubator in 50% DMEM/50% F-12 medium (Life Technologies) supplemented with 10% FBS (Hyclone), 100 U/mL penicillin, 100 μg/mL streptomycin (Life Technologies), and 2 mM GlutaMAX (Life Technologies). On day 1 of the assay, cells were seeded at a 7,500 cells/well density in white poly-D-lysine-coated 384-well plates (Corning) with 25 μL medium, and were allowed to adhere overnight in the incubator. On day 2 of the assay, the medium was removed and replaced with 12 μL of assay buffer (Hank's Balanced Salt Solution/HBSS, 25 mM HEPES, and 1 mg/ml bovine serum albumin/BSA) containing dose-responses of test compounds. Compounds were serially diluted in DMSO and then diluted another 1000-fold in media to bring the final DMSO concentration to 0.1%. Cells were incubated with test compounds at 37° C. for 1 h, and followed by the addition of 12 μl of pre-warmed IL-13 (80 ng/mL in assay buffer) for stimulation. After incubating at 37° C. for 30 min, the assay buffer (containing compound and IL-13) was removed, and 10 μL of cell lysis buffer (25 mM HEPES, 0.1% SDS, 1% NP-40, 5 mM MgCl2, 1.3 mM EDTA, 1 mM EGTA, and supplement with Complete Ultra mini protease inhibitors and PhosSTOP from Roche Diagnostics). The plates were shaken at ambient temperature for 30 min before the addition of detection reagents. A mixture of biotin-anti-pSTAT6 and anti-STAT6 conjugated acceptor beads was added first and incubated at ambient temperature for 2 h, followed by the addition of streptavidin conjugated donor beads (Perkin Elmer). After a minimum of 2 h incubation, the assay plates were read on the EnVision plate reader. AlphaScreen luminescence signals were recorded and utilized to calculate the percent inhibition values based on DMSO and background controls.
For dose-response analysis, percent inhibition data were plotted vs. compound concentrations, and IC50 values were determined from a 4-parameter robust fit model with the Prism software. Results may also be expressed as the negative logarithm of the IC50 value, pIC50.
Test compounds having a lower IC50 value or higher pIC50 value in this assay show greater inhibition of IL-13 induced STAT6 phosphorylation.

JAK1 = JAK1 (Homo sapiens (Human), UniProt P23458); assay: Biochemical JAK kinase assay (LanthaScreen), JAK1; conditions: converted from pIC50 with Cheng-Prusoff equation
Experimental: (§1) Assay 1: Biochemical JAK Kinase Assays
(§2) A panel of four LanthaScreen JAK biochemical assays (JAK1, 2, 3 and Tyk2) were carried in a common kinase reaction buffer (50 mM HEPES, pH 7.5, 0.01% Brij-35, 10 mM MgCl2, and 1 mM EGTA). Recombinant GST-tagged JAK enzymes and a GFP-tagged STAT1 peptide substrate were obtained from Life Technologies.
(§3) Serially diluted compounds were pre-incubated with each of the four JAK enzymes and the substrate in white 384-well microplates (Corning) at ambient temperature for 1 h. ATP was subsequently added to initiate the kinase reactions in 10 μL total volume, with 1% DMSO. […] The plates were allowed to incubate at ambient temperature for 1 h before being read on the EnVision reader (Perkin Elmer).
(§4) For dose-response analysis, percent inhibition data were plotted vs. compound concentrations, and IC50 values were determined from a 4-parameter robust fit model with the Prism software (GraphPad Software). Results were expressed as pIC50 (negative logarithm of IC50) and subsequently converted to pKi (negative logarithm of dissociation constant, Ki) using the Cheng-Prusoff equation.

JAK3 = JAK3 (Homo sapiens (Human), UniProt P52333); assay: Biochemical JAK kinase assay (LanthaScreen), JAK3; conditions: converted from pIC50 with Cheng-Prusoff equation
Experimental: as §1, §2, §3, §4

JAK1, sequence (P23458 whole entry): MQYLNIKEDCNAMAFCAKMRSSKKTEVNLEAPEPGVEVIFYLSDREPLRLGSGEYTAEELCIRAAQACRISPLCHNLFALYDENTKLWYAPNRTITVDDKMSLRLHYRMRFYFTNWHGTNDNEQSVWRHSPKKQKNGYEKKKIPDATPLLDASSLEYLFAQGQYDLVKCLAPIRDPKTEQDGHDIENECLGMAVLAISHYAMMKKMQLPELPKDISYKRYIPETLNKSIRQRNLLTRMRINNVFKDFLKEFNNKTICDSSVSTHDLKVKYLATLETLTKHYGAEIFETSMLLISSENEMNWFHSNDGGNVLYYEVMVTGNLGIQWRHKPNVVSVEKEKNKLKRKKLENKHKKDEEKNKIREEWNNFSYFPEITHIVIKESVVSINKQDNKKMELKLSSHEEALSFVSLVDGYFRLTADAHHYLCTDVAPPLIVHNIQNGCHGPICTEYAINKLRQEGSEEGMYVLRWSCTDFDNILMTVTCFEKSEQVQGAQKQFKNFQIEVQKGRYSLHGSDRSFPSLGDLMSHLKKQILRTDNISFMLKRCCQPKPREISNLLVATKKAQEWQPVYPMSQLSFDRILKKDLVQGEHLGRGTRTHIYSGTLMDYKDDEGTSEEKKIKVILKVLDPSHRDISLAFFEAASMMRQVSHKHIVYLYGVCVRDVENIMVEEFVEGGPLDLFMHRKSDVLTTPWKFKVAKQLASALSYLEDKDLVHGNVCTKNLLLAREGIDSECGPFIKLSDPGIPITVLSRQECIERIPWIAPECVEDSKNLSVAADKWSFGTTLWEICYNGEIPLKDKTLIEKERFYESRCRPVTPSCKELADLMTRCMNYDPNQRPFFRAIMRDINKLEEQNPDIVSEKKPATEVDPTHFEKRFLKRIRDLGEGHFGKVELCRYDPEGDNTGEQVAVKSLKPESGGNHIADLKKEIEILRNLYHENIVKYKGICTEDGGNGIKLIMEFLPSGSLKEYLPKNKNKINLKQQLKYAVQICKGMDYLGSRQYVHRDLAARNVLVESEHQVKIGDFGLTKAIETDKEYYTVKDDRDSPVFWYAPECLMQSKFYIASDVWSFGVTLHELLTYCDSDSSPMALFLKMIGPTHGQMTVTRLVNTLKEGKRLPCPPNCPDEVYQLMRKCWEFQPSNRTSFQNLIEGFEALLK
JAK3, sequence (P52333 whole entry): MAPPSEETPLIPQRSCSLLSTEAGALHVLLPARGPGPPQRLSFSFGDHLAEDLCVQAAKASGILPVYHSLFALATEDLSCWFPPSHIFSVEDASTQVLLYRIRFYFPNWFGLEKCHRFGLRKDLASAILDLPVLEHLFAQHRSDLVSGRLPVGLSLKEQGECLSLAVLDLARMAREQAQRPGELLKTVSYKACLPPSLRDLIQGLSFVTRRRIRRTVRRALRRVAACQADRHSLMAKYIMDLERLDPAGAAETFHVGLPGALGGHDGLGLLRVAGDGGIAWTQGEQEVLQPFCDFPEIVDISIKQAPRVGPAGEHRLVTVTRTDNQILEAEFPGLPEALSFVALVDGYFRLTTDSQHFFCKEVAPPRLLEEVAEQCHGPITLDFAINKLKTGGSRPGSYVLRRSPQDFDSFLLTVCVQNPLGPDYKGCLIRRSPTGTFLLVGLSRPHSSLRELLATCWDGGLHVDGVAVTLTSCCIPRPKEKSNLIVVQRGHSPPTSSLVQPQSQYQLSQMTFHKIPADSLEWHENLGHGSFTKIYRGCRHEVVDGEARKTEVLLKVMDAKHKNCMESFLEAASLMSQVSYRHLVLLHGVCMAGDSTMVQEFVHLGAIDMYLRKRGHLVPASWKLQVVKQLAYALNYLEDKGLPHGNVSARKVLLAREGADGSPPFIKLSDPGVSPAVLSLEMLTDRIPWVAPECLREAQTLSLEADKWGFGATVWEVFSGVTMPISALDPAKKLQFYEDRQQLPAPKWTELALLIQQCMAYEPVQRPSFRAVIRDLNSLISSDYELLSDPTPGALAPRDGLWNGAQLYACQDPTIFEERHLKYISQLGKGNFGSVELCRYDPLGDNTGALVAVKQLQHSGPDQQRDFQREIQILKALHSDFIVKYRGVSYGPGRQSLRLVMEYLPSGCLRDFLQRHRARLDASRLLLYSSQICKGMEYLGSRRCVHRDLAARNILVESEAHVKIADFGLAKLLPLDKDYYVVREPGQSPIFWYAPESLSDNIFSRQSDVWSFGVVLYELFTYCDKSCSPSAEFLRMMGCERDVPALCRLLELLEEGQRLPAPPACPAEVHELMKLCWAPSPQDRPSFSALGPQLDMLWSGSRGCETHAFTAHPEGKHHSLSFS

Row | Structure (SMILES) | IC50 [1] | Ki (JAK1) | Ki (JAK3) | IC50 ([1]; Homo sapiens)
1 | CCc1cc(O)c(F)cc1-c1ccc2c(-c3nc4c([nH]3)CN(CC)C(C(=O)N3CC(N5CCCCC5)C3)C4)n[nH]c2c1 (racemic) [Example 8-4] | 10 nM |  |  | 
2 | CCc1cc(O)c(F)cc1-c1ccc2c(-c3nc4c([nH]3)CN(C)[C@H](C(=O)N3CC(N5CCCCC5)C3)C4)n[nH]c2c1 [Example 8-1] | 6.3 nM | 0.06 nM |  | 
3 | CCc1cc(O)c(F)cc1-c1ccc2c(-c3nc4c([nH]3)CN(C)[C@H](C(=O)N3CC(N(C)C)C3)C4)n[nH]c2c1 [Example 8-2] | 12.6 nM | 0.06 nM |  | 
4 | CCCN1Cc2[nH]c(-c3n[nH]c4cc(-c5cc(F)c(O)cc5CC)ccc34)nc2C[C@H]1C(=O)N1CC(N2CCCCC2)C1 [Example 8-5] | 25.1 nM |  | 0.2 nM | 
5 | CCc1cc(O)c(F)cc1-c1ccc2c(-c3nc4c([nH]3)CN(C(C)C)[C@H](C(=O)N3CC(N5CCCCC5)C3)C4)n[nH]c2c1 [Example 8-6] | 15.8 nM | 0.06 nM |  | 
6 | CCc1cc(O)c(F)cc1-c1ccc2c(-c3nc4c([nH]3)CN(CC)C(C(=O)N3CC(N(C)C)C3)C4)n[nH]c2c1 (stereo not drawn) [Example 8-8] | 5 nM |  | 0.28 nM | 
7 | CCc1cc(O)c(F)cc1-c1ccc2c(-c3nc4c([nH]3)CN(C)C(C(=O)N3CC(C)(N(C)C)C3)C4)n[nH]c2c1 (stereo not drawn) [Example 8-9] |  | 0.05 nM | 0.16 nM | 7.1 nM
8 | CCc1cc(O)c(F)cc1-c1ccc2c(-c3nc4c([nH]3)CN(CC)C(C(=O)N3CC(C)(N(C)C)C3)C4)n[nH]c2c1 (stereo not drawn) [Example 8-10] |  |  |  | 3.2 nM
9 | CCCN1Cc2[nH]c(-c3n[nH]c4cc(-c5cc(F)c(O)cc5CC)ccc34)nc2CC1C(=O)N1CC(C)(N(C)C)C1 (stereo not drawn) [Example 8-11] |  |  |  | 6.3 nM
10 | CCc1cc(O)c(F)cc1-c1ccc2c(-c3nc4c([nH]3)CN(C(C)C)C(C(=O)N3CC(C)(N(C)C)C3)C4)n[nH]c2c1 (stereo not drawn) [Example 8-12] |  | 0.06 nM |  | 4 nM
11 | CCc1cc(O)c(F)cc1-c1ccc2c(-c3nc4c([nH]3)CN(CC)[C@H](C(=O)N3CC(N5CCCCC5)C3)C4)n[nH]c2c1 [Example 8-14, (S)-(5-ethyl-2-(6-(2-ethyl-5-fluoro-4-hydroxyphenyl)-1H-indazol-3-yl)-4,5,6,7-tetrahydro-3H-imidazo[4,5-c]pyridin-6-yl)(3-(piperidin-1-yl)azetidin-1-yl)methanone] |  |  |  | 12.6 nM
12 | CCc1cc(O)c(F)cc1-c1ccc2c(-c3nc4c([nH]3)CN(C(C)C)[C@H](C(=O)N3CC(C)(N(C)C)C3)C4)n[nH]c2c1 [Example 8-16] |  |  |  | 5 nM
13 | CCc1cc(O)c(F)cc1-c1ccc2c(-c3nc4c([nH]3)CN(C(C)C)[C@@H](C(=O)N3CC(N(C)C)C3)C4)n[nH]c2c1 [Example 8-17] | 8 nM |  | 0.13 nM | 
14 | CCc1cc(O)c(F)cc1-c1ccc2c(-c3nc4c([nH]3)CN(C(C)C)[C@@H](C(=O)N3CC(C)(N(C)C)C3)C4)n[nH]c2c1 [Example 8-18] |  |  |  | 4 nM
15 | CCCN1Cc2[nH]c(-c3n[nH]c4cc(-c5cc(F)c(O)cc5CC)ccc34)nc2C[C@@H]1C(=O)N1CC(C)(N(C)C)C1 [Example 8-19] |  |  |  | 8 nM
16 | CCc1cc(O)c(F)cc1-c1ccc2c(-c3nc4c([nH]3)CN(CC)[C@@H](C(=O)N3CC(N(C)C)C3)C4)n[nH]c2c1 [Example 8-20] | 5 nM |  | 0.2 nM | 
17 | CCc1cc(O)c(F)cc1-c1ccc2c(-c3nc4c([nH]3)CN(CC)[C@@H](C(=O)N3CC(C)(N(C)C)C3)C4)n[nH]c2c1 [Example 8-21] |  |  |  | 4 nM
